The assay concerns the target T1, Seed linoleate 13S-lipoxygenase-1 (Glycine max, UniProt P08170).
T1 sequence (P08170 whole entry): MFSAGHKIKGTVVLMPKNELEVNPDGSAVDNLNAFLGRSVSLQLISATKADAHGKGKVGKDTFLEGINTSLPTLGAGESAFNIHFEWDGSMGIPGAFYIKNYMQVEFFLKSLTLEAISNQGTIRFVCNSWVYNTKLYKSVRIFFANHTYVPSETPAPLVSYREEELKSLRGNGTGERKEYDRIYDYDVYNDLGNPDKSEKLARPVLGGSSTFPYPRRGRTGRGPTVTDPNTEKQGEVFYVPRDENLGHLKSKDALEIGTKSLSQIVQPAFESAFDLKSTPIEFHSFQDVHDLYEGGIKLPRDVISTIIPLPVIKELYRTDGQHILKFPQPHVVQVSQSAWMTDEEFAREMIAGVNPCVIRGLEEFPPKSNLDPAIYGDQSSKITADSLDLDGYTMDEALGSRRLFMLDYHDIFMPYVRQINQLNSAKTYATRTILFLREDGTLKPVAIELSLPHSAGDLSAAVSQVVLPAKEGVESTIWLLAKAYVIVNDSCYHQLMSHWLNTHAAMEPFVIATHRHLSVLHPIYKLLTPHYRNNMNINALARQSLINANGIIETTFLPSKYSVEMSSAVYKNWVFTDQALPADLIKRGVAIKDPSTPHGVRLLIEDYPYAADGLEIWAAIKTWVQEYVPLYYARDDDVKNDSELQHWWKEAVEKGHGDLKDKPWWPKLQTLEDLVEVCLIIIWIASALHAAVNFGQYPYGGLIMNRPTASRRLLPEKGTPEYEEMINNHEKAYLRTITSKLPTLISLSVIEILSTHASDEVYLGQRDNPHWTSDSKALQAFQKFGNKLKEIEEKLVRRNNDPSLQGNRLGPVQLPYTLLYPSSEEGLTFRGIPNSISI
Kind of assay: Lipoxygenase Inhibition Assay. The settings on record: pH 8; 25 °C. Here is the method: A mixture of test compound (10 μL; 1 mM) in MeOH, type-1B lipoxygenase (EC 1.13.11.12; from soyabean) (20 μL; 70 units) in 0.1 M aqueous phosphate buffer (pH 8.0) in a total volume of 160 μL was incubated for 10 min at 25°C. Then the reaction was initiated by the addition of a solution of linoleic acid as substrate (10 μL; 20 μM), resulting in the formation of (9Z,11E,13S)-13-hydroperoxyoctadeca-9,11-dienoate. The change in UV absorbance at 234 nm was followed over a period of 6 min. All reactions were performed in triplicate, and analyzed with a 96-well plate reader (SpectraMax Plus 384; Molecular Devices).

Usually IC50 stands for the concentration that gives 50% inhibition. Turning to `COc1ccc(-c2coc3cc(O)cc(O)c3c2=O)cc1` [5,7-dihydroxy-3-(4-methoxyphenyl)-4H-chromen-4-one], half-maximal inhibition (IC50) required 100 µM.

As to `COc1cc(-c2coc3cc(O)c(O)cc3c2=O)ccc1O` [Conferin (1)], the IC50 is 55.2 µM.
